Reference: US20110253135A1, “METAL COORDINATION COMPLEXES OF VOLATILE DRUGS” (ALEXZA PHARMACEUTICALS, INC., priority 2008, published 2011)
Where two headings read alike, the source gives them in different places.

What was measured:
[1] = 25° C.; cited from earlier work
[2] = Drug aerosol from percussively ignited heat package: purity and recovered yield by HPLC; format: physicochemical

Compound: CN1CCCC1c1cccnc1 (stereo not shown) [Nicotine, nicotine]
- vapor pressure [1]: 0.0425 mmHg

Compound: Cc1nnc2n1-c1ccc(Cl)cc1C(c1ccccc1)=NC2 [alprazolam]
- purity of the resultant aerosol [2]: 96.8%
- recovered yield of aerosol [2]: 100%

Compound: CC(C)C(=O)OCC(=O)[C@@]12O[C@H](C3CCCCC3)O[C@@H]1C[C@H]1[C@@H]3CCC4=CC(=O)C=C[C@]4(C)[C@H]3[C@@H](O)C[C@@]12C [ciclesonide]
- purity of the resultant aerosol ([2]; percussively ignited heat package, greater than 800° C., air flow 20 L/min, film 1.58 μm alprazolam, 6.33 μm pramipexole, 2.53 μm ciclesonide): 85.6%
